Tested on: hRXR α, β, or γ
Experiment: Transactivation assay (RARE-Luc dual luciferase reporter in HEK-293 cells), activity relative to LG268
Assay type: cell-based, human
Settings: 24 h, luciferase activity expressed relative to LG268; for Activity at 1 µM: compound at 1 µM; for Activity at 300 nM: compound at 300 nM
Protocol: HEK-293 cells (ATCC) were seeded one day prior to transfection. For assessing EC50 of activation of RXR isoforms 2 μg of hRXR α, β, or γ (OriGENE, USA) over-expressing vector, 1 μg of plasmid expressing firefly luciferase under RARE element (RARE-Luc) and 25 ng of renilla luciferase vector (QIAGEN, USA) were co-transfected using lipofectamine reagent. Post 24 h of transfection, cells were treated with different concentrations of RXR agonists (100 nM, 300 nM and 1 uM) for 24 h followed by estimation of luciferase activity using Dual Luciferase Reporter Assay System (Promega). Luciferase activity was normalized to that of renilla luciferase. The activities of the RXR compounds were expressed relative to LG268, a known RXR agonist.

Structure (SMILES)	Activity at 1 µM	Activity at 300 nM
CCN(c1ncc(C(=O)O)cn1)c1nc2c(s1)C(C)(C)CCC2(C)C [Compound 42, 2-[Ethyl(4,4,7,7-tetramethyl-4,5,6,7-tetrahydro-1,3-benzothiazol-2-yl)amino]pyrimidine-5-carboxylic acid]	** (>0.7 and <0.8)	–
CC1(C)CCC(C)(C)c2sc(N(CC3CC3)c3ncc(C(=O)O)cn3)nc21 [Compound 43, 2-[(Cyclopropylmethyl) (4,4,7,7-tetramethyl-4,5,6,7-tetrahydro-1,3-benzothiazol-2-yl)amino]pyrimidine-5-carboxylic acid]	* (<0.7)	–
Cc1nc2cc(C(=O)O)ccc2n1-c1nc2c(s1)C(C)(C)CCC2(C)C [Compound 44, 2-Methyl-1-(4,4,7,7-tetramethyl-4,5,6,7-tetrahydro-1,3-benzothiazol-2-yl)-1H-benzimidazole-5-carboxylic acid]	* (<0.7)	–
CC1(C)CCC(C)(C)c2sc(-n3nnc4cc(C(=O)O)ccc43)nc21 [Compound 45, 1-(4,4,7,7-Tetramethyl-4,5,6,7-tetrahydro-1,3-benzothiazol-2-yl)-1H-benzotriazole-5-carboxylic acid]	* (<0.7)	–
CC1(C)CCC(C)(C)c2sc(Oc3ccc(C(=O)O)cc3)nc21 [Compound 46, 4-[(4,4,7,7-Tetramethyl-4,5,6,7-tetrahydro-1,3-benzothiazol-2-yl)oxy]benzoic acid]	* (<0.7)	** (>0.3 and <0.4)
CC1(C)CCC(C)(C)c2sc(C(=O)c3ccc(C(=O)O)cc3)nc21 [Compound 47, 4-[(4,4,7,7-Tetramethyl-4,5,6,7-tetrahydro-1,3-benzothiazol-2-yl)carbonyl]benzoic acid]	* (<0.7)	–
CC1(C)CCC(C)(C)c2sc(/C=C/c3ccc(C(=O)O)cc3)nc21 [Compound 48, 4-[(E)-2-(4,4,7,7-Tetramethyl-4,5,6,7-tetrahydro-1,3-benzothiazol-2-yl)ethenyl]benzoic acid]	* (<0.7)	–
CC1(C)CCC(C)(C)c2sc(/C=C\c3ccc(C(=O)O)cc3)nc21 [Compound 49, 4-[(Z)-2-(4,4,7,7-Tetramethyl-4,5,6,7-tetrahydro-1,3-benzothiazol-2-yl)ethenyl]benzoic acid]	***** (>1)	–
CC1(C)CCC(C)(C)c2sc(/C=C/c3ccc(C(=O)O)cn3)nc21 [Compound 50, 6-[(E)-2-(4,4,7,7-Tetramethyl-4,5,6,7-tetrahydro-1,3-benzothiazol-2-yl)ethenyl]pyridine-3-carboxylic acid]	* (<0.7)	–
Cc1c(N(CC(C)C)c2ccc(C(=O)O)c([N+](=O)[O-])c2)sc2c1C(C)(C)CCC2(C)C [Compound 51, 4-[(2-methylpropyl) (3,4,4,7,7-pentamethyl-4,5,6,7-tetrahydro-1-benzothiophen-2-yl)amino]-2-nitrobenzoic acid]	–	***** (>0.6)
CC1(C)CC(=O)C(C)(C)c2nc(N(CC3CC3)c3ccc(C(=O)O)cn3)sc21 [Compound 52, 6-[(cyclopropylmethyl) (4,4,7,7-tetramethyl-5-oxo-4,5,6,7-tetrahydro-1,3-benzothiazol-2-yl)amino]pyridine-3-carboxylic acid]	–	***** (>0.6)
CC(C)CN(c1ccc(C(=O)O)cc1)c1nc2c(s1)C(C)(C)CC(=O)C2(C)C [Compound 53, 4-[(2-methylpropyl) (4,4,7,7-tetramethyl-5-oxo-4,5,6,7-tetrahydro-1,3-benzothiazol-2-yl)amino]benzoic acid]	–	***** (>0.6)
COc1cc(N(CC(C)C)c2sc3c(c2C)C(C)(C)CCC3(C)C)ccc1C(=O)O [Compound 54, 2-methoxy-4-[(2-methylpropyl)(3,4,4,7,7-pentamethyl-4,5,6,7-tetrahydro-1-benzothiophen-2-yl)amino]benzoic acid]	–	*** (>0.4 and <0.5)

From patent publication US9862713B2, “Substituted bicyclic heteroaryl compounds as RXR agonists” (CONNEXIOS LIFE SCIENCES PVT. LTD., priority 2014, dated 2018)
